For orientation: pIC50 means −log10 of the IC50, conventionally taken in molar units. A word on the IC50: it is the concentration that inhibits the measured activity by half.

The record followed here is patent US20210170033A1, “NOVEL CONJUGATES OF A PHARMACEUTICAL AGENT AND A MOIETY CAPABLE OF BINDING TO A GLUCOSE SENSING PROTEIN” (SANOFI, priority 2017, published 2021).

For one experiment, the target named is T1, hGLUT1 protein (Homo sapiens, UniProt P11166).
T1 construct: fused on or other part: 11-amino-acid HiBiT peptide tag (small part of nanoluciferase) inserted into the first extracellular loop of GLUT1
T1 sequence (P11166 1-492): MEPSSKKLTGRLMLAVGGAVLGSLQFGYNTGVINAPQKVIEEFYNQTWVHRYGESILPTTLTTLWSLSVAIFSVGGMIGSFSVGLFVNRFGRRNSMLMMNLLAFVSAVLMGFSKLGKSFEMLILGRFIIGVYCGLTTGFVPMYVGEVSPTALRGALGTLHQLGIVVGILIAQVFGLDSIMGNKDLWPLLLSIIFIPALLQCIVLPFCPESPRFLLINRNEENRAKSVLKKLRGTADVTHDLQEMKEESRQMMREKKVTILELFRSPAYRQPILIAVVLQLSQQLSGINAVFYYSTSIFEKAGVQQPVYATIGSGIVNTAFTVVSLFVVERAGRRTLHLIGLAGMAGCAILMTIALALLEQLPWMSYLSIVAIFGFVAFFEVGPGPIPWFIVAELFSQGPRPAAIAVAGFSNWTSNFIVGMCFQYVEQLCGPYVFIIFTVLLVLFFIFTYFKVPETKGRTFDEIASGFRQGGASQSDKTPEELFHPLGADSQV
The experiment can be described thus: NanoBRET-based GLUT1-binding assay in HEK cells. To be noted: displacement of Bayer+NB618 (75 nM) from HiBit-tagged GLUT1 HEK cells; mean of measurements done twice in duplo; read-out: IC50. The procedure: 3. NanoBRET-Based GLUT1-Binding Assays in HEK Cells
To measure binding of compounds to the hGLUT1 protein, the newly-developed NanoBRET platform from Promega is used. In this technology binding is measured via Foerster Resonance Energy Transfer. Foerster Resonance Energy Transfer is based on a direct, radiation-free energy transfer from donor to acceptor and can only take place when donor and acceptor are within nm distance. As donor energy the bioluminescence light of nanoluciferase is used, therefore this application is referred to as BRET (Bioluminescence Resonance Energy Transfer). Nanoluciferase is a protein that emits light when the appropriate substrate is available.
Nanoluciferase is attached to GLUT1 via protein complementation using the HiBit protein tagging system (Promega). […] The HiBit peptide tag is used as a landing pad for the so called Large Bit protein that is commercially available from Promega and added to the medium. Large Bit has a high affinity for HiBit tag resulting in protein complementation to a fully-functional nanoluciferase, which is used as energy donor in the NanoBRET assay system.
To obtain a HEK cell line expressing HiBit-tagged GLUT1, cells were transfected with the appropriate construct placed behind the tetracycline-inducible promoter (Flipin T-Rex system from Thermo Fisher, K650001) and a cell line was generated.
As NanoBRET acceptor a GLUT1 inhibitor described by Siebeneicher et al. (Siebeneicher H., Bauser M., Buchmann B., et al. Identification of novel GLUT inhibitors. Bioorganic & Medicinal Chemistry Letters 2016; 26(7):1732-7; compound 53) was reduced to the aminobenzyl derivative and coupled to the fluorophore NanoBRET618 (Promega) and is referred to as “Bayer+NB618”.
For the assay 50 μl with 7500 cells (HiBit-tagged GLUT1 HEK cells) are plated into 384 poly-D-lysine-coated black μClear plates (Greiner) in DMEM (Gibco 61966) medium supplemented with 10% tetracycline-free FCS (PAN P30-3602) and 300 ng/ml doxycycline (Sigma 9891) to induce the induction of the HiBit-tagged GLUT1 protein.
Incubation of Compound and Acceptor Molecule
After getting adherent by overnight incubation at 37° C. and 10% CO2, the medium is replaced by 10 μl imaging medium (1% BSA (Sigma A9576), 5 mM Hepes (Gibco 15630), 0.35 mM Na-bicarbonate (Gibco 11360-039), 1 mM Na-Pyruvate (Gibco 11360) in PBS buffer (Gibco14040)). 5 μl Bayer+NB618 (in imaging medium, final concentration 75 nM) is added and the plates are incubated for 15 minutes statically at room temperature.
A serial dilution of the test compounds is prepared in imaging medium and added in 10 μl to the respective wells. As a positive control for displacement values from wells incubated with 200 mM D-Glucose (Sigma G8769) are used. Plates are incubated for 30 minutes at room temperature without shaking.
Generating Luminescence and Measuring Fluorescence
This detection solution is made in the buffer provided. After addition of the detection reagent, the samples are incubated for 30 minutes without shaking and subsequently the luminescence and fluorescence emissions are measured simultaneously on the PHERAstar FSX (BMG Labtech) using the appropriate dual filter setup. This filter setup is made up of a 450-80 nm band pass filter to measure the donor signal peaking at 460 nm and a long pass filter starting at 610 nm to measure the fluorescence emission of NanoBRET 618, which peaks at 621 nm and continues beyond 700 nm.
From the raw luminescence and fluorescence values, the NanoBRET ratios are calculated, being the ratio of the fluorescence signal divided by the luminescence signal. Mean values are obtained from at least duplicates.
For percentage inhibition results, the mean value of the not-compound-treated cells is set as 0%. The mean BRET value of the cells treated with 200 mM glucose is used for maximal inhibition. All other mean values were calculated to this relation. […]
(In general: In BRET a luciferase serves as donor, and the signal depends on an acceptor being close.)

For another experiment, the system named is A2780 cells. The experiment can be described thus: Deoxy-glucose uptake assay in A2780 cells (14C 2-deoxy-D-glucose transport). It is filed as cell-based. To be noted: Homo sapiens, 20 min; inhibition of 14C 2-deoxy-D-glucose transport into A2780 cells; 20 min compound incubation; read-out: IC50. In outline: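 Radiolabelled 2-deoxy-D-glucose transport over 20 min was scintillation-counted in A2780 cells, grown 48 h, after 20 min compound exposure in KRB. Untreated cells gave the 100% reference, with Cytochalasin B defining background. IC50 values were regressed from triplicate means across 7 or 14 concentrations.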

In experiment [1] the test system is A2780 Human Carcinoma Cells. Kind of experiment: Glucose displacement assay (ATP measurement, CellTiter-Glo). In kind it is cell-based. To be noted: ATP measurement in A2780 cells, 0.5 μM rotenone. The essentials: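 Cells were glucose-starved for 2 h in 1% FCS medium, then treated with compound in KRB buffer for 20 min at 37 °C with rotenone at 0.5 μM final. Glucose (typically 0.1–10 mM) was added for 15 min at 37 °C. ATP was measured by CellTiter-Glo luminescence.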
In general terms: In ATP-based viability assays light output follows the ATP content of the culture.

[2] abbreviates: 1 mM glucose, read-out: IC50 [μM] at 1 mM glucose.
Where [3] appears, read: 10 mM glucose, read-out: IC50 [μM] at 10 mM glucose.

pIC50: −log10 of the molar value. Read-outs that look alike come from different tables or passages of the source.

Consider `C#CCCCn1c(COc2cc(OC)c(C(=O)N[C@H]3[C@@H](OC)O[C@H](CO)[C@@H](O)[C@@H]3O)cc2Cl)nc2ccccc21` [Example 328], for which the pIC50 is 4.87 on hGLUT1 protein and 5.80 in the experiment with A2780 cells. Further, the values for the IC50 in experiment [1] (setting [2]) and in experiment [1] (setting [3]) were 0.56 µM and over 33 µM, respectively.

`COc1cc(OCc2ccc3c(c2)nnn3C)c(Cl)cc1C(=O)O[C@H]1[C@@H](OC)O[C@H](CO)[C@@H](O)[C@@H]1O` [Example 340]: the negative logarithm of the IC50 (pIC50) on hGLUT1 protein was 5.02; in the experiment with A2780 cells, 6.40. Moreover, the concentration for half-maximal inhibition (IC50) was determined as 0.35 µM in experiment [1] (setting [2]) and 4.55 µM in experiment [1] (setting [3]).

As for `COc1cc(OCc2cccc(NC(=O)OC(C)(C)C)c2)c(Cl)cc1C(=O)N[C@H]1[C@H](OC)O[C@H](CO)[C@@H](O)[C@@H]1O` [Example 415], the pIC50 is 5.08 on hGLUT1 protein and 6.15 in the experiment on A2780 cells. For the same molecule, the 50% inhibitory concentration (IC50) in experiment [1] (setting [2]) came out at 3.07 µM; in experiment [1] (setting [3]), 9.21 µM.
